# Patent US20180244629A1, “Compounds And Compositions For The Treatment Of Cancer” (The Broad Institute, Inc., priority 2013, published 2018)
# Read-outs that look alike come from different tables or passages of the source.
# Tests used:
# HeLa cells = test: HeLa Cytotoxicity Assay (Cell Titer Glo viability); format: cell-based; conditions: Homo sapiens, HeLa
# Method: HeLa Cytotoxicity Assay Protocol: Day 0: HeLa cells (ATCC, HeLa CCL-2) are grown to 95% confluence in DMEM, 10% FBS/Pen/Strep/L-Glutamine. Day 1: Plate cells (1000 per well) in 40 μl culturing media using Corning 384-well plates (3570), incubate in standard TC conditions (5% CO2, 95% humidity, 37 degrees C.) for 24 hours. Day 2: Dilute each concentration of a half-log serial dilution of compound (1 mM-100 nM) 1:200 in culturing media and add 10 μl (50 μl total volume) of that dilution to designated wells (8 replicates per concentration). The final dilution will be 1000×(1 μM-100 pM). Day 4: Remove plate from incubator to cool for 20 minutes to room temperature. Add 40 μl of a 25% Promega Cell Titer Glo solution (diluted 1:3 with room temperature PBS) with Thermo combi or multichannel and incubate for 10 minutes. Read on Perkin-Elmer EnVision with US LUM settings for 0.1 second per well.
# (§1) Compounds as shown were tested against various cells lines in vitro according to the methods described herein. Cells are plated in 384-well format in a total volume of 40 μl. Indicated compound concentrations were added 24 hrs after plating the cells. After 48 hrs cell viability was determined using Cell Titer Glo® Luminescent Cell Viability Assay.
# as §1, with “Known PDE3 inhibitors” for “Compounds”, “shown below” for “shown”
# H2122 cells = test: H2122 Assay (Cell Titer Glo viability); format: cell-based; conditions: Homo sapiens
# Method: Selective toxicity in cell line panel. H2122 Assay Protocol Day 0: H2122 cells (ATCC, H2122 CCL-5985) are grown to 95% confluence in RPMI, 10% FBS/Pen/Strep/L-Glutamine. Day 1: Plate cells (750 per well) in 40 μl culturing media using Corning 384-well plates (3570), incubate in standard TC conditions (5% CO2, 95% humidity, 37 degrees C.) for 24 h. Day 2: Dilute each concentration of a half-log serial dilution of compound (1 mM-100 nM) 1:200 in culturing media and add 10 μl (50 μl total volume) of that dilution to designated wells (8 replicates per concentration). The final dilution will be 1000×([…]). Day 4: Remove plate from incubator to cool for 20 minutes to room temperature. Add 40 μl of a 25% Promega Cell Titer Glo solution (diluted 1:3 with room temperature PBS) with Thermo combi or multichannel and incubate for 10 minutes. Read on Perkin-Elmer EnVision with US LUM settings for 0.1 second per well.
# as §1
# COLO741 cells = test: COLO741 Assay (Cell Titer Glo viability); format: cell-based; conditions: Homo sapiens, COLO-741, Example 18; Mean ± SD (n = 3); read-out: Potency (EC50 nM) COLO741
# Method: (§2) C0L0741 Assay Protocol. Day 0: C0L0741 cells (ECACC, C0L0741 93052621) are grown to 95% confluence in RPMI, 10% FBS/Pen/Strep/L-Glutamine. Day 1: Plate cells (1500 per well) in 40 μl culturing media using Corning 384-well plates (3570), incubate in standard TC conditions (5% CO2, 95% humidity, 37° C.) for 24 h. Day 2: Dilute each concentration of a half-log serial dilution of compound (1 mM-100 nM) 1:200 in culturing media and add […] (50 μl total volume) of that dilution to designated wells (8 replicates per concentration). The final dilution will be 1000×([…]). Day 4: Remove plate from incubator to cool for 20 minutes to room temperature. Add 40 μl of a 25% Promega Cell Titer Glo solution (diluted 1:3 with room temperature PBS) with Thermo combi or multichannel and incubate for 10 minutes. Read on Perkin-Elmer EnVision with US LUM settings for 0.1 second per well.
# as §1
# A549 cells = test: A549 Cytotoxicity Assay (Cell Titer Glo viability); format: cell-based; conditions: Homo sapiens, A549
# Method: as §2, with “A549 Cytotoxicity Assay” for “C0L0741 Assay”, “0: A549” for “0: C0L0741”, “cells (ATCC, A549 CCL-185)” for “cells (ECACC, C0L0741 93052621)”, “cells (1000” for “cells (1500”, “10 min.” for “10 minutes.”
# A549 Assay Protocol. Day 0: A549 cells (ATCC) are grown in a Triple flask (NUNC) to ˜95% confluence (TrypLE Phenol Red free) and resuspended for dispensing at 25,000 cells/mL of DMEM, 10% FBS/Pen/Strep/L-Glutamine (using the TAP Compact SelecT automated cell culture system). Day 1: Plate cells at 1000 per well in 40 uL media (DMEM/10% FBS/Pen/Strep/L-Glutamine) using Corning 8867BC 384 well plates; incubate in standard TC conditions (5% CO2; 95% humidity, 37° C.) for 24 hours (Compact SelecT). Day 2: Add 100 nL compound per well at dose into 40 uL assay volume using a pin tool (CyBi Well). Pin 100 nL cytotoxic compounds, mitoxantrone (CID 4212) to positive control wells to a final concentration of 10 μM (100 nL 4 mM DMSO stock). Incubate for […] at 37° C. in Liconic incubator, 95% humidity 5% CO2. Day 4: Remove plate from incubator, cool for 15 minutes to room temperature; add 20 μL 50% Promega CellTiterGlo (diluted 1:1 with PBS, pH 7.4) with Thermo Combi. Incubate at room temperature for 5 minutes. Read plates on Perkin-Elmer EnVision with standard luminescence settings for 0.1 sec per well.
# as §1
# as §1, with “Known PDE3 inhibitors” for “Compounds”, “shown below” for “shown”
# H1563 = H1563 cell line viability (Cell Titer Glo); format: cell-based; conditions: Homo sapiens, NCI-H1563; n = 2; read-out: Potency (EC50) H1563
# Method: as §1
# PDE3 = conditions: reference value; read-out: PDE3 activity (ref); cited from earlier work
# [1] = n = 2, read-out: Potency (EC50) A549
# [2] = n = 2, read-out: Potency (EC50) HeLa
# [3] = NCI-H2122, n = 2, read-out: Potency (EC50) H2122
Structure (SMILES),EC50 (H1563) [µM],EC50 (A549 cells; [1]) [nM],also measured
O=C1CN2Cc3c(ccc(Cl)c3Cl)NC2=N1,–,–,"EC50 (HeLa cells; Example 18, Mean ± SD (n = 3), read-out: Potency (EC50 nM) HeLa): 6.8 ± 0.9 nM; EC50 (H2122 cells; NCI-H2122, Example 18, Mean ± SD (n = 3), read-out: Potency (EC50 nM) H2122): 17.4 ± 3.5 nM; EC50 (COLO741 cells): 12.2 ± 0.9 nM"
O=C1CCC(c2ccccc2)=NN1,> 10,> 10000,–
CC1CC(=O)NN=C1c1ccc(N)cc1 (stereo not shown),> 10,> 10000,–
C[C@@H]1CC(=O)NN=C1c1ccc(N)cc1,> 10,> 10000,–
O=C(O)Cc1n[nH]c(=O)c2ccccc12,> 10,> 10000,–
CCN(CC)c1ccc(C(=O)Nc2cccc(OC)c2)cc1[N+](=O)[O-],> 10,> 10000,–
CCN(CC)c1ccc(C#N)cc1[N+](=O)[O-],> 10,> 10000,–
CCN(CC)c1ccc(C(=O)O)cc1[N+](=O)[O-],> 10,> 10000,–
"O=C1CN2Cc3c(ccc(Cl)c3Cl)N=C2N1 [Anagrelide, reference compound]",–,–,"EC50 (HeLa cells; known PDE3 inhibitors, Mean (n = 3), read-out: Potency (EC50 nM) HeLa): 8.2 nM; EC50 (A549 cells; known PDE3 inhibitors, Mean (n = 3), read-out: Potency (EC50 nM) A549): > 10000 nM; IC50 (PDE3): 0.036 µM"

# Second part, led by results:
EC50 (H1563) [µM],Structure (SMILES),EC50 (A549 cells; [1]) [nM],also measured
0.003,CC1CC(=O)NN=C1c1ccc(N2CCCCC2)c([N+](=O)[O-])c1 (stereo not shown),> 10000,EC50 (HeLa cells; [2]): 1 nM; EC50 (H2122 cells; [3]): 1 nM
0.003,CC1CC(=O)NN=C1c1ccc(N2CCOCC2)c([N+](=O)[O-])c1 (stereo not shown),> 10000,–
> 10,COc1ccc(CC(=O)N2CCN(c3ccc(C4=NNC(=O)CC4C)cc3[N+](=O)[O-])CC2)cc1 (stereo not shown),> 10000,–
> 10,CC1CC(=O)NN=C1c1ccc(N)c([N+](=O)[O-])c1 (stereo not shown),> 10000,–
0.04,CC1CC(=O)NN=C1c1ccc(N(C)C)c([N+](=O)[O-])c1 (stereo not shown),> 10000,–
0.04,CC1CC(=O)NN=C1c1ccc(NCCO)c([N+](=O)[O-])c1 (stereo not shown),> 10000,EC50 (HeLa cells; [2]): 4 nM; EC50 (H2122 cells; [3]): 11 nM
> 10,CC1CC(=O)NN=C1c1ccc(N)c(N)c1 (stereo not shown),> 10000,–
> 10,CC1CC(=O)NN=C1c1ccc(/N=C\c2ccccc2[N+](=O)[O-])cc1 (stereo not shown),> 10000,–
